We go through 12 compounds from patent US8541573B2, “Substituted sulfonamide compounds” (Gruenenthal GmbH, priority 2008, dated 2013).

Counter-ions that a name gives are not always drawn.

Assay [1] concerns the target T1, human B1R (Homo sapiens, UniProt P46663).
T1 construct: expressed in transfected cells; host or cells: CHO K1 cells
T1 sequence (P46663 1-353): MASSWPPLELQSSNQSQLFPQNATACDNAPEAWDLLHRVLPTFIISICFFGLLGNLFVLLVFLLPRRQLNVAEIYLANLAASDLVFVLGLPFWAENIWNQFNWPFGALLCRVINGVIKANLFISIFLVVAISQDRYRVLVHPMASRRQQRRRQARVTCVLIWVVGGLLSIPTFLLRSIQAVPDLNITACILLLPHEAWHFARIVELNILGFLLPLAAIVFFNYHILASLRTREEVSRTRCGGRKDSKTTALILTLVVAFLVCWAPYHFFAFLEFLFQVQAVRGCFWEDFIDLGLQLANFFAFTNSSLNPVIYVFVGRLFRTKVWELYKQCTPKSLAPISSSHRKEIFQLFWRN
Briefly: Functional investigation on the bradykinin 1 receptor (B1R), cell-based fluorescent calcium-mobilization assay (FLIPR/Novostar), human. The settings on record: 10 μM test substance, CHO K1 cells stably transfected with human B1R gene, agonist Lys-Des-Arg9-bradykinin at EC80, % inhibition compared with maximum achievable inhibition; for inhibition at 10 µM: read-out: B1R antagonism, human [10 μM] % inhibition. Here is the method:
(§1) The agonistic or antagonistic action of substances can be quantified on the bradykinin 1 receptor (B1R) of the human and rat species with ectopically expressing cell lines (CHO K1 cells) and with the aid of a Ca^2+-sensitive dyestuff (Fluo-4) in a fluorescent imaging plate reader (FLIPR). The figure in % activation is based on the Ca^2+ signal after addition of Lys-Des-Arg^9-bradykinin (0.5 nM) or Des-Arg^9-bradykinin (100 nM). Antagonists lead to a suppression of the Ca^2+ inflow after addition of the agonist. % inhibition compared with the maximum achievable inhibition is stated.
(§2) The agonistic or antagonistic action of substances can be determined on the bradykinin 1 receptor (B1R) of humans and rats by means of a cell-based flourescent calcium-mobilization assay. According to this assay agonist-induced increase of intracellular free Ca^2+ is quantified by means of a Ca^2+-sensitive dye (Fluo-4 type, Molecular Probes Europe BV, Leiden, Netherlands), in a Fluorescent Imaging Plate Reader (FLIPR, Molecular Devices, Sunnyvale, USA) and/or the Novostar (BMG Labtech GmbH, Offenburg, Germany).
(§3) Chinese hamster ovary cells (CHO K1 cells), which are stably transfected with the human B1R gene (hB1R cells) or with the B1R gene of rats (rB1R cells), are used. For functional investigations these cells are seeded into black 96-well plates with a clear bottom (BD Biosciences, Heidelberg, Germany or Greiner, Frickenhausen, Germany) in a density of 20,000-35,000 cells/well. The cells are incubated overnight in a humidified atmosphere at 37° C. and 5% CO2 in culture medium (hB1R cells: Nutrient Mixture Ham's F12, Gibco Invitrogen GmbH, Karlsruhe, Germany or DMEM, Sigma-Aldrich, Taufkirchen, Germany; rB1R cells: D-MEM/F12, Gibco Invitrogen GmbH, Karlsruhe, Germany) with 10 vol. % FBS (foetal bovine serum, Gibco Invitrogen GmbH, Karlsruhe, Germany).
(§4) On the following day the cells are loaded with the Ca^2+-sensitive dye Fluo-4-AM (Molecular Probes Europe BV, Leiden, Netherlands):
(§5) Method A: The medium of the cells is removed and cell plates are incubated with loading solution, which contains 2.13 μM Fluo-4-AM, 2.5 mM probenecid (Sigma-Aldrich, Taufkirchen, Germany), and 10 mM HEPES (Sigma-Aldrich, Taufkirchen, Germany) in HBSS buffer (Hank's buffered saline solution, Gibco Invitrogen GmbH, Karlsruhe, Germany) for 60 minutes at 37° C. After the plates are washed twice with HBSS buffer, HBSS buffer supplemented 0.1% BSA (bovine serum albumin; Sigma-Aldrich, Taufkirchen, Germany), 5.6 mM glucose and 0.05% gelatine (Merck KGaA, Darmstadt, Germany) is added. Cell plates are incubated for at least 20 minutes in the dark at room temperature before they are used for the Ca^2+ measurement in the FLIPR or Novostar.
(§6) Method B: The plates are washed with buffer A (15 mM HEPES, 80 mM NaCl, 5 mM KCl, 1.2 mM CaCl2, 0.7 mM MgSO4, 2 mg/ml glucose, 2.5 mM probenecid) and subsequently loaded with buffer A containing 2.4 μM Fluo-4-AM and 0.025% pluronic F127 (Sigma-Aldrich, Taufkirchen, Germany) for 60 minutes at 37° C. Cell plates are washed twice with buffer A. Then, buffer A supplemented with 0.05% BSA and 0.05% gelatine is added and cell plates are incubated in the dark at room temperature for at least 20 minutes before measurement in the FLIPR or Novostar is started.
(§7) The Ca^2+-dependent fluorescence is measured both before and after the addition of substances (λex=488 nm, λem=540 nm). For quantification of the effect the highest fluorescence intensity (FC, fluorescence counts) over time is given. The FLIPR protocol consists of two substance additions, done within the instrument while continuously monitoring the Ca^2+-dependent fluorescence at 540 nm. When the Novostar was used, one addition had to be done outside the instrument. Test substances (10 μM) are initially pipetted onto the cells and the intracellular Ca^2+ rise is compared with the control (hB1R: Lys-Des-Arg9-bradykinin>=50 nM; rB1R: Des-Arg9-bradykinin>=1 μM). […]

Assay [2] concerns the target T2, B1R of rats (Rattus norvegicus, UniProt P97583).
T2 construct: expressed in transfected cells; host or cells: CHO K1 cells
T2 sequence (P97583 1-337): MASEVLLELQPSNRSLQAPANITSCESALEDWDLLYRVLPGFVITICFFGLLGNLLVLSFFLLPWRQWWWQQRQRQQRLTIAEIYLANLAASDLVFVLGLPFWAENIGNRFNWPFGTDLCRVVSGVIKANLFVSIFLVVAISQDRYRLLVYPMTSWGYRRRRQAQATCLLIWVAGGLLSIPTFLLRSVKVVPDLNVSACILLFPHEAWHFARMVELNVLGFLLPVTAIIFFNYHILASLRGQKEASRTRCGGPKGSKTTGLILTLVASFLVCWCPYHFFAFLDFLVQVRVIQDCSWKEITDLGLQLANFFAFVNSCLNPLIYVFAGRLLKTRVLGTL
Briefly: Functional investigation on the bradykinin 1 receptor (B1R), cell-based fluorescent calcium-mobilization assay (FLIPR/Novostar), rat. The settings on record: 10 μM test substance, CHO K1 cells stably transfected with rat B1R gene, agonist Des-Arg9-bradykinin at EC80, % inhibition compared with maximum achievable inhibition; for inhibition at 10 µM: read-out: B1R antagonism, rat [10 μM] % inhibition. Here is the method: as §1, §2, §3, §4, §5, §6, §7

As for `CN1CCN(C2(CNC(=O)c3cccnc3)CCN(C(=O)COCC3CCc4ccccc4N3S(=O)(=O)c3ccc(Cl)c(Cl)c3)CC2)CC1` (stereo not shown) [Example 40, N-((1-(2-((1-(3,4-dichlorophenylsulfonyl)-1,2,3,4-tetrahydroquinolin-2-yl)methoxy)acetyl)-4-(4-methylpiperazin-1-yl)piperidin-4-yl)methyl)nicotinamide], the inhibition at 10 µM in assay [1] turned out to be 49%; in assay [2] it was 103%.
For `COc1cc(C)c(S(=O)(=O)N2CCCCC2COCC(=O)N2CCC(CNC(=O)Cc3ccccc3)(N3CCN(C)CC3)CC2)c(C)c1` (stereo not shown) [Example 3, N-((1-(2-((1-(4-methoxy-2,6-dimethylphenylsulfonyl)piperidin-2-yl)methoxy)acetyl)-4-(4-methylpiperazin-1-yl)piperidin-4-yl)methyl)-2-phenylacetamide], the inhibition at 10 µM in assay [1] came to 103%; in assay [2] it was 104%.
Turning to `COc1cc(C)c(S(=O)(=O)N(C)CCOCC(=O)N2CCC(CNC(=O)c3ccncc3)(N3CCN(C)CC3)CC2)c(C)c1` [Example 48, N-((1-(2-(2-(4-Methoxy-N,2,6-trimethylphenylsulfonamido)ethoxy)acetyl)-4-(4-methylpiperazin-1-yl)piperidin-4-yl)methyl)isonicotinamide hydrochloride], the “B1R antagonism, human [10 μM] % inhibition” value in assay [1] (hydrochloride, 10 µM) is given as 100%. Also, the “B1R antagonism, rat [10 μM] % inhibition” value in assay [2] (hydrochloride, 10 µM) amounted to 97%.
As to `COc1cc(C)c(S(=O)(=O)N2CCCCC2COCC(=O)N2CCC(CNC(=O)c3cccnc3)(N3CCN(C)CC3)CC2)c(C)c1` (stereo not shown) [Example 34, N-((1-(2-((1-(4-methoxy-2,6-dimethylphenylsulfonyl)piperidin-2-yl)methoxy)acetyl)-4-(4-methylpiperazin-1-yl)piperidin-4-yl)methyl)nicotinamide], the figures for the inhibition at 10 µM in assay [1] and in assay [2] were 104% and 102%, respectively.
The like results for `COc1cc(C)c(S(=O)(=O)N(CCOCC(=O)N2CCC(CNC(C)=O)(N3CCN(c4ccncc4)CC3)CC2)C2CC2)c(C)c1` [Example 46, N-((1-(2-(2-(N-Cyclopropyl-4-methoxy-2,6-dimethylphenylsulfonamido)ethoxy)acetyl)-4-(4-(pyridin-4-yl)piperazin-1-yl)piperidin-4-yl)methyl)acetamide] were, in that order, 100% and 101%.
The corresponding values for `COc1cc(C)c(S(=O)(=O)N2CCCCC2COCC(=O)N2CCC(CNC(=O)c3ccccc3)(N3CCN(C)CC3)CC2)c(C)c1` (stereo not shown) [Example 5, N-((1-(2-((1-(4-methoxy-2,6-dimethylphenylsulfonyl)piperidin-2-yl)methoxy)acetyl)-4-(4-methylpiperazin-1-yl)piperidin-4-yl)methyl)benzamide] are 102% and 104%.
Take `O=C(NCC1(N2CCN(C3CC3)CC2)CCN(C(=O)COCCN(C2CC2)S(=O)(=O)c2ccccc2C(F)(F)F)CC1)c1ccncc1` [Example 47, N-((1-(2-(2-(N-Cyclopropyl-2-(trifluoromethyl)phenylsulfonamido)ethoxy)acetyl)-4-(4-cyclopropylpiperazin-1-yl)piperidin-4-yl)methyl)isonicotinamide]: the inhibition at 10 µM in assay [1] was 100%; in assay [2] it was 99%.
For `COc1cc(C)c(S(=O)(=O)N(CCOCC(=O)N2CCC(CN3Cc4ccccc4C3=O)(N3CCN(C4CC4)CC3)CC2)C2CC2)c(C)c1` [Example 42, N-Cyclopropyl-N-(2-(2-(4-(4-cyclopropylpiperazin-1-yl)-4-((1-oxoisoindolin-2-yl)methyl)piperidin-1-yl)-2-oxoethoxy)ethyl)-4-methoxy-2,6-dimethylbenzenesulfonamide], the inhibition at 10 µM was found to be 97% in assay [1] and 96% in assay [2].
`Cc1cccc(Cl)c1S(=O)(=O)N1c2ccccc2OCC1COCC(=O)N1CCC(CNC(=O)c2ccncc2)(N2CCN(C)CC2)CC1` (stereo not shown) [Example 50, N-((1-(2-((4-(2-Chloro-6-methylphenylsulfonyl)-3,4-dihydro-2H-benzo[b][1,4]oxazin-3-yl)methoxy)acetyl)-4-(4-methylpiperazin-1-yl)piperidin-4-yl)methyl)isonicotinamide]: the inhibition at 10 µM in assay [1] came to 96%; in assay [2], 102%.
`Cc1cc(S(=O)(=O)N2CCCCC2CCC(=O)N2CCC(CNC(=O)Cc3ccccc3)(N3CCN(C)CC3)CC2)c(C)cc1Cl` (stereo not shown) [Example 10, N-((1-(3-(1-(4-chloro-2,5-dimethylphenylsulfonyl)piperidin-2-yl)propanoyl)-4-(4-methylpiperazin-1-yl)piperidin-4-yl)methyl)-2-phenylacetamide]: the inhibition at 10 µM is 101% in assay [1] and 39% in assay [2].
With `COc1cc(C)c(S(=O)(=O)N2CCCCC2CCOCC(=O)N2CCC(CNC(=O)c3ccncc3)(N3CCN(C)CC3)CC2)c(C)c1` (stereo not shown) [Example 53, N-((1-(2-(2-(1-(4-Methoxy-2,6-dimethylphenylsulfonyl)piperidin-2-yl)ethoxy)acetyl)-4-(4-methylpiperazin-1-yl)piperidin-4-yl)methyl)isonicotinamide], the inhibition at 10 µM in assay [2] came out at 102%.
On to `CN1CCN(C2(CNC(=O)c3ccncc3)CCN(C(=O)CCCN(C)S(=O)(=O)c3cccc(C(F)(F)F)c3)CC2)CC1` [Example 54, N-((1-(4-(N-Methyl-3-(trifluoromethyl)phenylsulfonamido)butanoyl)-4-(4-methylpiperazin-1-yl)piperidin-4-yl)methyl)isonicotinamide], for which, in assay [2], the inhibition at 10 µM was found to be 66%.
